Measured values from BigSolDB 2.1.

COC(=O)/C=C(\C)NC(C(=O)[O-])c1ccc(O)cc1.[K+] (stereo not given)
solubility (mole fraction) (in ethanol, 278.22 K): 0.000319
solubility (mole fraction) (in ethanol, 283.26 K): 0.000342
solubility (mole fraction) (in ethanol, 288.21 K): 0.000369
solubility (mole fraction) (in ethanol, 293.04 K): 0.0004
solubility (mole fraction) (in ethanol, 298.07 K): 0.000438
solubility (mole fraction) (in ethanol, 303.29 K): 0.000481
solubility (mole fraction) (in ethanol, 308.21 K): 0.000527
solubility (mole fraction) (in ethanol, 313.09 K): 0.000577
solubility (mole fraction) (in ethanol, 318.23 K): 0.000635
solubility (mole fraction) (in ethanol, 323.11 K): 0.000694
solubility (mole fraction) (in methanol, 278.24 K): 0.00281
solubility (mole fraction) (in methanol, 283.28 K): 0.00303
solubility (mole fraction) (in methanol, 288.04 K): 0.00325
solubility (mole fraction) (in methanol, 293.35 K): 0.0035
solubility (mole fraction) (in methanol, 298.31 K): 0.00375
solubility (mole fraction) (in methanol, 302.97 K): 0.00398
solubility (mole fraction) (in methanol, 308.19 K): 0.00426
solubility (mole fraction) (in methanol, 313.32 K): 0.00453
solubility (mole fraction) (in methanol, 318.11 K): 0.0048
solubility (mole fraction) (in methanol, 322.45 K): 0.00505
